Assay results taken from patent US10875874B2, “Ginkgolide B derivative and preparation method and use thereof” (Chengdu Baiyu Ginkgolide Pharmaceuticals Co., Ltd., priority 2015, dated 2020).
Marks after values point to notes of the source that are not given here.

Columns and labels:
Format in all cases: in vivo, rat
[1] = Weekly body weight of SHR rats; conditions: captopril 27 mg/kg intragastric
Experimental: (§1) 2.1 Grouping and administration of animals: 112 SHR rats (the female and male SHR rats are half and half, and the female rats are not pregnant) with the body weight of 200-250 g are taken, the rats are enabled to adapt to a laboratory for a period of 5 d, blood pressure is measured once at a day to enable the rats to adapt to the environment and detect stimulation. Then, weighing and numbering are carried out, and the SHR rats are equally divided into 14 groups randomly (each group comprises 8 rats), i.e., an SHR rat model control group, a positive control group (captopril, 27 mg/kg), a BZ large-dose group (120 mg/kg/d), a BZ small-dose group (60 mg/kg/d), a BA large-dose group (120 mg/kg/d), a BA small-dose group (60 mg/kg/d), a BL large-dose group (120 mg/kg/d), a BL small-dose group (60 mg/kg/d), a BM large-dose group (120 mg/kg/d), a BM small-dose group (60 mg/kg/d), a BD large-dose group (120 mg/kg/d), a BD small-dose group (60 mg/kg/d), a GB large-dose group (120 mg/kg/d) and a GB small-dose group (60 mg/kg/d). In addition, 8 healthy Wistar rats are taken as a normal control group. Intragastric administration is performed on the rats of each drug group separately according to the above-mentioned doses by 1 mL/100 g body weight, intragastric administration is performed on the rats of the normal control group and the rats of the SHR rat model control group with an equal volume of distilled water, and administration is performed continuously for 8 weeks.
(§2) 2.2 General state: during observation, conditions such as mind, water drinking, food intake, bowel movement, hair color, body weight and range of motion of rats are observed. Irritable degrees of the rats are divided into III levels: a level I means that the rats are free of obvious response when necks of the rats are seized; a level II means that the rats scream and startle when the necks of the rats are seized; and a level III means that the rats bite or rats of same cages frequently fight when the necks of the rats are seized.
(§3) 3.1 Influence on general state of spontaneously hypertensive rats: the rats of the normal control group are normal in food intake, drinking and motion conditions, sensitive in response, healthy and glossy in hair color, good in mental state and free of any unusual response; the rats of the SHR model group gradually present that back hair is fluffy, clustered and dim, the appetite is reduced, the body weight is reduced, the mind is dispirited and irritable, and the rats are prone to the behaviors of intense resisting, attacking and so on during administration and blood pressure detection, and irritable degrees are mostly changed to a level II and a level III from a level I; and after single administration of ginkgolide B and derivatives thereof, behavioral general state observations of rats of each group are free of obvious difference from those of the model control group.

[2] = test system: spontaneously hypertensive rats (SHR); test: Caudal artery systolic pressure of spontaneously hypertensive rats, single administration; conditions: captopril 27 mg/kg intragastric single administration, x ± s, n = 8
Experimental: as §1
(§4) 2.3 Blood pressure measuring: caudal artery systolic pressure of rats is measured with a Bp-6 noninvasive blood pressure measuring system. Under the condition that the rats are calm, the systolic pressure is continuously measured for 3 times, and the average value of the measured systolic pressure is taken as a pressure measuring result. Observation indexes: (1) single-administration pressure lowering effect: blood pressure of the rats is measured before administration and blood pressure conditions are measured 30 min, 60 min, 90 min and 120 min after first administration; and (2) continuous-administration pressure lowering condition: blood pressure is separately measured 30 min after administration at 1 d, 7 d, 13 d, 19 d, 25 d, 35 d, 49 d and 56 d, the blood pressure is repeatedly measured for 3 times at a day, and the average value of obtained values is taken as a final blood pressure value.

[3] = Weekly food intake of SHR rats; conditions: captopril 27 mg/kg intragastric
Experimental: as §1, §2, §3

[4] = test system: spontaneously hypertensive rats (SHR); test: Caudal artery systolic pressure of spontaneously hypertensive rats, 8 weeks of continuous medication; conditions: captopril 27 mg/kg intragastric continuous, x ± s, n = 8
Experimental: as §1, §4

Q: Which Body weight ([1]; week 0) does the source give for `C[C@H](CS)C(=O)N1CCC[C@H]1C(=O)O` [Positive control, captopril, reference compound] here?
A: 230.5 g

Q: And the Body weight ([1]; week 1)?
A: 235.1 g

Q: And the Body weight ([1]; week 2)?
A: 245.4^▴ g

Q: What about the Body weight ([1]; week 3) of the same molecule?
A: 255.9^▴▴ g

Q: And the Body weight ([1]; week 4)?
A: 260.5^▴▴ g

Q: And the Body weight ([1]; week 5)?
A: 266.3^▴▴ g

Q: And the Body weight ([1]; week 6)?
A: 271.0^▴▴ g

Q: And the Body weight ([1]; week 7)?
A: 280.6^▴▴ g

Q: What about the Body weight ([1]; week 8) of the same molecule?
A: 290.7^▴▴ g

Q: And the Systolic pressure ([2]; 30 min)?
A: 149.75 ± 8.09 mmHg

Q: What about the Systolic pressure ([2]; 60 min) of the same molecule?
A: 140.95 ± 9.50 mmHg

Q: And the Systolic pressure ([2]; 90 min)?
A: 139.23 ± 6.04 mmHg

Q: What about the Systolic pressure ([2]; 120 min) of the same molecule?
A: 134.41 ± 8.31 mmHg

Q: And the Systolic pressure ([2]; before administration)?
A: 161.24 ± 11.03 mmHg

Q: And the “Average dairy food intake” value ([3]; week 0)?
A: 18.4 g/day

Q: And the “Average dairy food intake” value ([3]; week 1)?
A: 20.0^▴ g/d

Q: And the “Average dairy food intake” value ([3]; week 2)?
A: 19.1^▴ g/d

Q: And the “Average dairy food intake” value ([3]; week 3)?
A: 19.5^▴ g/d

Q: What about the “Average dairy food intake” value ([3]; week 4) of the same molecule?
A: 19.9^▴ g/d

Q: What about the “Average dairy food intake” value ([3]; week 5) of the same molecule?
A: 21.4^▴▴ g/d

Q: And the “Average dairy food intake” value ([3]; week 6)?
A: 23.8^▴▴ g/d

Q: What about the “Average dairy food intake” value ([3]; week 7) of the same molecule?
A: 24.6^▴▴ g/d

Q: What about the “Average dairy food intake” value ([3]; week 8) of the same molecule?
A: 26.3^▴▴ g/d

Q: What about the Systolic pressure ([4]; 1 d, 30 min after administration) of the same molecule?
A: 145.17 ± 6.42 mmHg

Q: What about the Systolic pressure ([4]; 7 d, 30 min after administration) of the same molecule?
A: 142.05 ± 7.24 mmHg

Q: And the Systolic pressure ([4]; 13 d, 30 min after administration)?
A: 140.36 ± 9.20 mmHg

Q: And the Systolic pressure ([4]; 19 d, 30 min after administration)?
A: 138.39 ± 7.26 mmHg

Q: What about the Systolic pressure ([4]; 25 d, 30 min after administration) of the same molecule?
A: 145.02 ± 7.30 mmHg

Q: And the Systolic pressure ([4]; 35 d, 30 min after administration)?
A: 139.08 ± 6.72 mmHg

Q: And the Systolic pressure ([4]; 49 d, 30 min after administration)?
A: 135.47 ± 8.47 mmHg

Q: What about the Systolic pressure ([4]; 56 d, 30 min after administration) of the same molecule?
A: 130.39 ± 4.65 mmHg

Q: What about the Systolic pressure ([4]; before administration) of the same molecule?
A: 161.24 ± 11.03 mmHg
